Reference: publication PMC6832651, “Design, Synthesis and Investigation of the Potential Anti-Inflammatory Activity of 7-O-Amide Hesperetin Derivatives” (Molecules, 2019)
Where two headings read alike, the source gives them in different places.

How the values were obtained:
[1] = parameters: method as in PMID 19629709; settings: cited from earlier work
[2] = parameters: method as in PMID 17047689; settings: cited from earlier work
IL-1β = IL-1β level in medium of LPS-induced RAW264.7 cells (ELISA); format: cell-based, mouse; settings: 10 μM compound (Figure 2A-C)
Source text: (§1) When inflammation occurs, LPS-activated macrophages produce a variety of inflammatory cytokines, including TNF-α, interleukins (ILs), and nitric oxide (NO), which show a host shielding effect and also accelerate the occurrence of the inflammatory response during inflammatory situations. To evaluate the anti-inflammatory activity of hesperetin derivatives, the levels of TNF-α, IL-6 and IL-1β in the medium of LPS-induced macrophage cells were detected by enzyme linked immunosorbent assay (ELISA). […] Later, we will select one of them as lead compound and modify the structure at the 3’-OH, 5-OH and 4-carbonyl positions. […] Compounds 4d (MW = 401) and 4k (MW = 427) have similar structures and should have the same mechanism. Therefore, compound 4d with lower molecular weight was selected to further explore the mechanism(s) of the anti-inflammatory effect.
(§2) RAW264.7 cells (2 × 10^5 cells/well) were cultured in 24-well plate and pretreated with 10 μM of compounds for 1 h. And then stimulated with LPS, […], for 24 h. The cell culture supernatant were collected and the levels of TNF-α, IL-6 and IL-1β were determined using the ELISA kit (Elabscience, Wuhan, China). The optical density (OD) was measured at 540 nm. The results were analyzed using Origin Pro 8 (OriginLab, Northampton, MA, USA).

[3] = system: LPS-induced NO production in RAW264.7 cells; assay: Inhibition of LPS-induced NO production (Griess reagent); format: cell-based; settings: Mus musculus, 10 μM compound, 1 h pretreatment, then LPS (1 μg/mL) 24 h, mean ± SD (n = 3)
[4] = system: LPS-induced NO production in RAW264.7 cells; assay: as above; format: cell-based, mouse
Description: NO is an important inflammatory mediator and is overproduced and secreted out of mouse macrophages in response to bacterial lipopolysaccharide. To evaluate the anti-inflammatory activity of hesperetin derivatives, the secretion level of NO was detected in the medium of RAW264.7 cells after LPS stimulated with Griess reagent. Before the cells were treated with LPS (1 μg/mL) for 24 h, pretreatment with the compounds for 1 hour. […] All hesperetin derivatives could decrease the release of NO induced by LPS. […] While extended the length of the amide side chain and the inhibitory activities increased (4d > 4c > 4a; 4e > 4b). […] On the other hand, the cavity was medium-sized, large enough to accommodate cyclopentyl and propyl groups, but not enough to accommodate cyclohexyl and butyl ones (4a < 4b < 4d > 4f; 4k > 4l).
Nitrite levels were determined using the Griess method for NO has a short half-life and is oxidized to stable nitrite. RAW 264.7 cells were plated at a density of 2 × 10^5 per well in a 24-well culture plate and incubated in a 37 °C humidified incubator (5% CO2). After overnight Cultured, discarded the supernatant, added pre-configured compounds of different concentrations to the 24-well plate, and added the same one-thousandth of the DMSO solvent as the control to the experimental group for 1 h. Then LPS was added to experimental and model groups at a concentration of […] for 24 h compared to vehicle control. Following treatment, media was collected and centrifuged at 2000 rpm for 5 min to remove cellular debris. The medium from treated cells was removed and placed into a 96-well plate (50 µL per well) and was measured in culture supernatant using Griess reagent at 540 nm. The IC50 values of compounds were calculated by SPSS23.

IL-6 = IL-6 level in medium of LPS-induced RAW264.7 cells (ELISA); format: cell-based, mouse; settings: 10 μM compound (Figure 2A-C)
Source text: as §1, §2

RAW264.7 cells = assay: MTT cell viability / cytotoxicity assay; format: cell-based, mouse; settings: concentrations up to 100 μM, MTT (Figure 1)
Description: Compounds 4a–4l, 5a–5b, 6a–6f, 7a–7c were assessed for toxicity against RAW264.7 cell lines using the 3-(4,5-dimethylthiazol-2-yl)-2,5-diphenyltetrazolium bromide (MTT) assay. After 40 μM treatment, the cell viability of all of the hesperetin derivatives was more than 90%. It was thus shown that the anti-inflammatory activities of hesperetin derivatives were not due to their cytotoxicity. In subsequent anti-inflammation studies, the highest concentration of hesperetin derivatives was set below 40 µM.
Cytotoxicity and cell viability was evaluated by a MTT (Sigma, Shanghai, China) assay using a method similar to the one described above. Cells were inoculated at a density of 7.0 × 10^3 cells/well into 96-well plate and cultured at 37 °C for 12 h. […] After that, MTT dissolved in phosphate buffered saline (PBS) and was added to the culture medium to reach a final concentration of 0.5 mg/mL and incubated for another 4 h. The media was removed and 200 μL of DMSO was added and incubated for 30 min. Finally, the cell viability (%) was calculated based on the absorbance measured at the wavelength of 490 nm and measured using a microplate reader (Synergy HTX, Biotek, Winowski, VT, USA). The cell viability were calculated by GraphPad Prism 6 (GraphPad, San Diego, CA, USA).

NF-κB signal pathway = assay: Western blotting of NF-κB signal pathway in LPS-induced RAW264.7 cells; format: cell-based, mouse
Source text: Stimulation with LPS leads to the activation of nuclear factor-kappa B (NF-κB), which is a well-known transcription factor that positively regulates inflammation. When NF-κB activation is stimulated by LPS, inhibitor of NF-κB (IκB) protein phosphorylated and degraded frees NF-κB p65 subunit from sequestration, allowing it to translocate to the nucleus, bind to target promoters, and turn on the transcriptions of inflammation genes including TNF-α and IL-6. Therefore, Western blotting was used to examine the effects of compound 4d on LPS induced transcriptional activity of NF-κB in RAW264.7 cells.
After the treatment with LPS ([…]) in the presence different concentration gradient or absence of compounds, removed culture supernatants, and cells were collected and lysed with RIPA lysis buffer (Beyotime, Shanghai, China) and phosphatase inhibitors (Beibokit, Bestbio, Shanghai, China). After centrifugation (4 °C, 30 min, 12,000 rpm, Beckman Coulter, Inc., Fullerton, CA, USA), the total protein concentration was determined using BCA Protein Assay Kit (Beyotime, Shanghai, China). Lysates containing […] of total proteins were fractionated on SDS polyacrylamide gel and transferred to a polyvinylidene difluoride membranes (PVDF) (Merck Millipore, Tullagreen Carrigtwohill, Ireland). Membranes were blocked with 5% skim milk or 3% BSA (Albumin Bovine V, Sigma) in TBST and incubated at 4 °C overnight with their respective primary antibody: β-actin (1:1000 dilution; Abcam, Cambridge, MA, USA), iNOS (1:1000 dilution; Abcam, Cambridge, MA, USA), COX-2 (1:1000 dilution; CST, Danvers, MA, USA ), NF-κB (1:1000 dilution; CST, Danvers, MA, USA). After washing three times with TBST, membranes were incubated with secondary antibody for 1 h in room temperature on the shaker. Protein bands were visualized by the ultra-sensitive enhanced chemiluminescent (ECL) substrate (ECL-plus, Thermo Scientific, Rockford, IL, USA), after washing three times with TBST [34].

iNOS = assay: Western blotting of iNOS expression in LPS-induced RAW264.7 cells; format: cell-based, mouse; settings: LPS 24 h, compound 5, 10, 20 μM (Figure 3)
Description: (§3) In the process of inflammation, inducible nitric oxide synthase enzymes (iNOS) are induced to overexpression in inflammatory cells when exposed to pro-inflammatory cytokines, which further leads to excessive production of NO. The inhibition of NO production by compound 4d may be correlated with its suppressive effect on LPS-induced iNOS. Thus, the inhibitory effects of compound 4d on LPS-mediated expressions of iNOS were analyzed by western blotting. Nitric oxide synthase (iNOS) protein levels were analyzed after exposure to LPS for 24 h in the presence or absence of compound 4d (5, 10, 20 μM). […] Cyclooxygenase-2 (COX-2) is an important indicator of anti-inflammatory inhibitors, maintaining a low level in normal tissues. […] Bay 11-7082 (5 μM) used as a positive control.
(§4) After the treatment with LPS ([…]) in the presence different concentration gradient or absence of compounds, removed culture supernatants, and cells were collected and lysed with RIPA lysis buffer (Beyotime, Shanghai, China) and phosphatase inhibitors (Beibokit, Bestbio, Shanghai, China). After centrifugation (4 °C, 30 min, 12,000 rpm, Beckman Coulter, Inc., Fullerton, CA, USA), the total protein concentration was determined using BCA Protein Assay Kit (Beyotime, Shanghai, China). […]

COX-2 = assay: Western blotting of COX-2 expression in LPS-induced RAW264.7 cells; format: cell-based, mouse; settings: compound 5, 10, 20 μM (Figure 3)
Description: as §3, §4

TNF-α = TNF-α level in medium of LPS-induced RAW264.7 cells (ELISA); format: cell-based, mouse; settings: 10 μM compound (Figure 2A-C)
Source text: as §1, §2

SMILES	elimination half-life (t1/2) [1]	elimination half-life (t1/2) [2]	inhibitory effect on IL-1β production (IL-1β)	inhibition at 10 µM [3]	LPS-induced NO release ([4]; LPS-stimulated, result in words)	IC50 ([4]; Mus musculus, 1 h pretreatment, then LPS 24 h, mean ± SD (n = 3))	inhibitory effect on IL-6 production (IL-6)	melting point	cytotoxicity (RAW264.7 cells)	phosphorylation of IκBα (NF-κB signal pathway; LPS-induced RAW264.7 cells (Figure 4))	protein expressions of NF-κB and IκBα (NF-κB signal pathway; LPS-induced RAW264.7 cells, compared with the LPS induced group (Figure 4))	LPS-induced NF-κB p65 nuclear translocation (NF-κB signal pathway; RAW264.7 cells, pretreatment 5, 10, 20 µM)	expression level of iNOS (iNOS)	expression level of COX-2 (COX-2)	inhibitory effect on TNF-α production (TNF-α)
COc1ccc([C@@H]2CC(=O)c3c(O)cc(O)cc3O2)cc1O [hesperetin]	3.12 h	1.78 h	–	–	–	–	–	–	–	–	–	–	–	–	–
CCCNC(=O)COc1cc(O)c2c(c1)O[C@H](c1ccc(OC)c(O)c1)CC2=O [Compound 4d, 7-O-(2-(Propylamino)-2-oxoethyl)hesperetin]	–	–	greater inhibitory effects than indomethacin (Ind) and celecoxib (Cel)	38.2 ± 1.13%	significantly alleviated the increase of LPS-induced NO release	19.3 ± 0.47 µM	greater inhibitory effects than indomethacin (Ind) and celecoxib (Cel)	135.5 to 137.7 °C	no significant cytotoxicity	markedly decreased	down-regulated	concentration-dependently reversed	significantly decreased the expression level of iNOS induced by LPS in a dose-dependent manner	capable of reducing the expression level of COX-2 in a concentration-dependent way	greater inhibitory effects than indomethacin (Ind) and celecoxib (Cel)
